Results: article PMC12194779, “Synergistic Insecticidal Activity of Plant Volatile Compounds: Impact on Neurotransmission and Detoxification Enzymes in Sitophilus zeamais” (Insects, 2025)
Values joined by “and” are separate entries in the source; they are usually repeats but may differ in a detail not shown here. Equal entries are not always repeated.

System: glutathione S-transferase (GST) activity in S. zeamais
Assay: GST activity assay (modified Habig) with S. zeamais protein extract
Format: biochemical, Sitophilus zeamais
Settings: 120 mg/L
Protocol: (§1) Enzymatic assays were performed in the assay buffer, consisting of 0.1 M potassium phosphate buffer (pH 7.2). The compounds and mixtures evaluated in the in vitro assays were prepared in the same buffer supplemented with 0.5% (v/v) Triton X-100 (Sigma-Aldrich®, Saint Louis, MO, USA).
(§2) A modified version of the method described by Oviedo et al. was used. Adults of S. zeamais (8 g; ~3125 insects) were frozen in liquid nitrogen, homogenized in a 1:10 ratio with assay buffer, and centrifuged at 13,000× g for 60 min at 4 °C. The supernatant was filtered, and 20 mM benzamidine was added. The extracts were stored in 5 mL aliquots at −20 °C. Preliminary assays were performed to quantify the specific activity of AChE (0.02–1.00 U/mL), GST (0.1–0.8 U/mL), and CAT (0.1–25 U/mL), and to optimize assay conditions (enzyme dilution: 1/8 to 1% v/v; substrate concentrations: 2 × km or within assay linearity). Each experiment was performed independently three times, with three technical replicates per experiment.
A modified version of Habig’s method was used. The protein extract (50 µL; 0.59 U/mL) was incubated with 50 µL of the compound or mixture (120 mg/L), followed by 50 µL each of CDNB and reduced glutathione (GSH). Kinetic absorbance was measured at 340 nm for 8 min. Blanks (without substrate) and quercetin (positive control) were included. Inhibition (%) was calculated using Equation (5), and treatment differences were evaluated via parametric ANOVA (α = 0.05) in GraphPad Prism 8.0.2 [42, 43]. Each experiment was performed independently three times, with three technical replicates per experiment.(5) % Inhibition=1−Am−AB/AC ×100 where Am is the absorbance of the sample, AB is the absorbance of the blank, and AC is the absorbance of the negative control.

SMILES	GST Inhibition λ340 (%)
C/C=C/c1ccc(OC)cc1 [Compound C29, trans-Anethol]	~ 17.5% and 17.5%
CC(C)=C1CC[C@H](C)CC1=O [Compound C2, S-(−)-Pulegone]	4.3%
C=CCc1ccc(O)c(OC)c1 [Compound C26, Eugenol]	24.3%
CC(C)=CCC[C@@H](C)CC=O [Compound C33, Citronellal]	4.3%
Cc1ccc(C(C)C)cc1O [Compound C25, Carvacrol]	19.3%
CC(C)=C1CC[C@@H](C)CC1=O [Compound C1, R-(+)-Pulegone]	2.4%

System: not given
Assay: not given
Design: method as in doi:10.1016/B978-0-12-819092-0.00021-2
Settings: i.p.; cited from earlier work

SMILES	LD50 (i.p.) [mg/kg]
CC(C)=C1CC[C@@H](C)CC1=O [Compound C1, R-(+)-Pulegone]	73

Same assay, conditions: i.v.; cited from earlier work

SMILES	LD50 (i.v.) [mg/kg]
CC(C)=C1CC[C@@H](C)CC1=O [Compound C1, R-(+)-Pulegone]	80

Same assay, conditions: oral; cited from earlier work

SMILES	oral LD50 [mg/kg]
Cc1ccc(C(C)C)cc1O [Compound C25, Carvacrol]	2462.23
CC(C)=C1CC[C@@H](C)CC1=O [Compound C1, R-(+)-Pulegone]	810

System: S. zeamais
Assay: not given
Design: method as in PMID 21173724, PMID 22236213
Settings: cited from earlier work

SMILES	Contact LD50 previously reported for 7-day assays [µg/adult]
CCCCCCCCC [Compound C20, n-Nonane]	17.62
CC(C)=CCC[C@@H](C)CC=O [Compound C33, Citronellal]	8.54
C=C(C)[C@@H]1CC=C(C)C(=O)C1 [Compound C4, R-(−)-Carvone]	2.79

System: AChE of S. zeamais
Assay: AChE activity assay (modified Ellman) with S. zeamais protein extract
Format: biochemical, Sitophilus zeamais
Design: key to AChE Effect Inhibitor Type: C: competitive inhibitor; NC: non-competitive inhibitor
Settings: not given
Protocol: The compounds and mixtures evaluated in the in vitro assays were prepared in the same buffer supplemented with 0.5% (v/v) Triton X-100 (Sigma-Aldrich®, Saint Louis, MO, USA).
The supernatant was filtered, and 20 mM benzamidine was added. The extracts were stored in 5 mL aliquots at −20 °C. Preliminary assays were performed to quantify the specific activity of AChE (0.02–1.00 U/mL), GST (0.1–0.8 U/mL), and CAT (0.1–25 U/mL), and to optimize assay conditions (enzyme dilution: 1/8 to 1% v/v; substrate concentrations: 2 × km or within assay linearity).
Then, 50 µL of DTNB and 50 µL of ATChI were added. […] Inhibition percentages were calculated using Equation (5).

SMILES	AChE inhibition type (Lineweaver–Burk plots), in words	AChE inhibition, times higher than the R-enantiomer (C1) [times]
C/C=C/c1ccc(OC)cc1 [Compound C29, trans-Anethol]	competitive inhibition	
CC(C)=C1CC[C@H](C)CC1=O [Compound C2, S-(−)-Pulegone]	competitive inhibition	2.3
CC(C)=CCC[C@@H](C)CC=O [Compound C33, Citronellal]	competitive inhibition	

Same assay, conditions: 120 mg/L

SMILES	AChE inhibition [%]
Cc1ccc(C(C)C)cc1O [Compound C25, Carvacrol]	46.85
CC(C)=C1CC[C@@H](C)CC1=O [Compound C1, R-(+)-Pulegone]	33.52

Same assay, conditions: Lineweaver–Burk

SMILES	AChE Effect Inhibitor Type
C/C=C/c1ccc(OC)cc1 [Compound C29, trans-Anethol]	C
CC(C)=C1CC[C@H](C)CC1=O [Compound C2, S-(−)-Pulegone]	C
CC(C)=CCC[C@@H](C)CC=O [Compound C33, Citronellal]	C

Same assay, conditions: S. zeamais protein extract

SMILES	AChE Effect IC50 ± SD [µg/mL]
C/C=C/c1ccc(OC)cc1 [Compound C29, trans-Anethol]	4.24 ± 0.36
CC(C)=C1CC[C@H](C)CC1=O [Compound C2, S-(−)-Pulegone]	36.60 ± 3.29
CC(C)=CCC[C@@H](C)CC=O [Compound C33, Citronellal]	7.72 ± 0.78

Same assay, conditions: S. zeamais protein extract; read-out: AChE Effect ki ± SD (inhibitory constant)

SMILES	Ki [µM]
C/C=C/c1ccc(OC)cc1 [Compound C29, trans-Anethol]	43.6 ± 3.46
CC(C)=C1CC[C@H](C)CC1=O [Compound C2, S-(−)-Pulegone]	50.3 ± 0.74
CC(C)=CCC[C@@H](C)CC=O [Compound C33, Citronellal]	199 ± 3.51

Same assay, conditions: ratio of IC50

SMILES	AChE potency, times more potent than isomer estragole (C11) [times]
C/C=C/c1ccc(OC)cc1 [Compound C29, trans-Anethol]	6.5

System: S. zeamais
Assay: not given
Settings: 7-day exposure; cited from earlier work

SMILES	Fumigant LC50 reported in 7-day exposure assays [µg/mL]
C=C(C)[C@@H]1CC=C(C)C(=O)C1 [Compound C4, R-(−)-Carvone]	2.76

System: Sitophilus zeamais
Assay: whole plant or invertebrate
Settings: Sitophilus zeamais, 24 h, read-out: Fumigant Toxicity LC50i (LC-95%)
Protocol: (§3) The insects used in this study were Sitophilus zeamais Motschulsky (Coleoptera: Curculionidae), identified by the Instituto Colombiano Agropecuario (ICA) under report number R3823M0000425. […] The adult insects used in all the experiments were 6 to 10 days post-emergence.
The treated disks were affixed to the inner surface of the screw cap of 22 mL glass vials. […] All treatments were performed in two independent experiments, each with five replicates.
(§4) Mixtures predicted by the RSM were prepared based on mole fractions. […] Four replicates were performed for each treatment and control across two independent experimental runs.
Dose reduction indices (DRIs) were also calculated to estimate how much the dose of each compound in a synergistic combination could be reduced to achieve a 50% effect (Equation (4)). DRIs were interpreted as favorable when >1, neutral at 1, and unfavorable when <1. Values above the log DRI = 0 line indicate favorable dose reductions.(4) (IRD)i=CL50i(fax)i/(1−(fax)i)^1/mi/(D)i

SMILES	LC50 [µg/mL]
CC(C)=C1CC[C@H](C)CC1=O [Compound C2, S-(−)-Pulegone]	0.97
CC(C)=C1CC[C@@H](C)CC1=O [Compound C1, R-(+)-Pulegone]	0.58

Same assay, conditions: Sitophilus zeamais, in Homo sapiens, 24 h, read-out: Fumigant Toxicity LC50 (95% FL)

SMILES	LC50
CC(C)=C1CC[C@H](C)CC1=O [Compound C2, S-(−)-Pulegone]	0.97 µg/mL and 6.37 µM
CCCCCCCCC [Compound C20, n-Nonane]	109 µg/mL and 851 µM
C=C(C)[C@@H]1CC=C(C)C(=O)C1 [Compound C4, R-(−)-Carvone]	1.42 µg/mL and 9.48 µM
CC(C)=C1CC[C@@H](C)CC1=O [Compound C1, R-(+)-Pulegone]	0.58 µg/mL and 3.81 µM

Same assay, conditions: Sitophilus zeamais, in Homo sapiens, 24 h, read-out: Fumigant Toxicity LC90 (95% FL)

SMILES	EC90
CC(C)=C1CC[C@H](C)CC1=O [Compound C2, S-(−)-Pulegone]	1.68 µg/mL and 11.1 µM
CCCCCCCCC [Compound C20, n-Nonane]	172 µg/mL and 1.34 mM
C=C(C)[C@@H]1CC=C(C)C(=O)C1 [Compound C4, R-(−)-Carvone]	2.17 µg/mL and 14.4 µM
CC(C)=C1CC[C@@H](C)CC1=O [Compound C1, R-(+)-Pulegone]	0.92 µg/mL and 6.07 µM

Same assay, conditions: Sitophilus zeamais, read-out: LC50 values, fumigant activity (Figure 3)

SMILES	LC50 [µg/mL]
C=C(C)[C@@H]1CC=C(C)C(=O)C1 [Compound C4, R-(−)-Carvone]	1.42

System: Sitophilus zeamais
Assay: not given
Format: in vivo
Settings: mixtures and their components (Table 3)
Protocol: as §3
Groups of 10 insects, previously placed in Petri dishes, were immobilized by exposure to low temperatures (0 °C). An initial dose of 50.0 µg per adult was applied topically to the dorsal thorax of each insect using aliquots of 0.20 µL from 0.25 mg/µL solutions in n-hexane. […] All treatments were performed in two independent experiments, each with four replicates. Insect mortality was assessed after 24 h, and mortality percentages were calculated using Abbott’s correction formula (Equation (1)).
as §4
Dose reduction indices (DRIs) were also calculated to estimate how much the dose of each compound in a synergistic combination could be reduced to achieve a 50% effect (Equation (4)). DRIs were interpreted as favorable when >1, neutral at 1, and unfavorable when <1.

SMILES	Contact Toxicity LD50i (LC-95%) [µg/Adult]
CC(C)=C1CC[C@H](C)CC1=O [Compound C2, S-(−)-Pulegone]	7.44
C=CCc1ccc(O)c(OC)c1 [Compound C26, Eugenol]	20.90
CC(C)=CCC[C@@H](C)CC=O [Compound C33, Citronellal]	36.94
Cc1ccc(C(C)C)cc1O [Compound C25, Carvacrol]	8.71
CC(C)=C1CC[C@@H](C)CC1=O [Compound C1, R-(+)-Pulegone]	4.85

Same assay, conditions: topical, 24 h after exposure

SMILES	Contact Toxicity LD90 (95% FL)	Contact Toxicity LD50 (95% FL)
C/C=C/c1ccc(OC)cc1 [Compound C29, trans-Anethol]	46.08 (41.56–52.95) µg/Adult	
CC(C)=C1CC[C@H](C)CC1=O [Compound C2, S-(−)-Pulegone]	9.64 (9.05–10.54) µg/Adult	
CCCCCCCCC [Compound C20, n-Nonane]		21.42 µg/Adult
C=CCc1ccc(O)c(OC)c1 [Compound C26, Eugenol]	30.82 (28.35–34.42) µg/Adult	20.9 (19.22–22.65) µg/Adult
CC(C)=CCC[C@@H](C)CC=O [Compound C33, Citronellal]	50.64 (47.46–55.39) µg/Adult	36.94 (34.60–39.14) µg/Adult
Cc1ccc(C(C)C)cc1O [Compound C25, Carvacrol]	13.45 (12.19–15.38) µg/Adult	
C=C(C)[C@@H]1CC=C(C)C(=O)C1 [Compound C4, R-(−)-Carvone]	28.45 (24.99–34.24) µg/Adult	16.89 (14.56–19.35) µg/Adult
CC(C)=C1CC[C@@H](C)CC1=O [Compound C1, R-(+)-Pulegone]	7.40 (6.79–8.28) µg/Adult	

System: catalase (CAT) activity in S. zeamais
Assay: CAT activity assay (adapted Sinha) with S. zeamais protein extract
Format: biochemical, Sitophilus zeamais
Settings: 120 mg/L
Protocol: as §1, §2
Sinha’s method was adapted. In Eppendorf tubes, 100 µL of protein extract (24.77 U/mL) was mixed with 100 µL of the compound or mixture (120 mg/L) and incubated at 37 °C for 15 min. Then, 200 µL of H2O2 was added and shaken for 2.5 min. The reaction was stopped by adding 600 µL of K2Cr2O7, followed by incubation at 100 °C for 10 min. A 200 µL aliquot was transferred to a 96-well plate, and absorbance was recorded at 570 nm. Blanks and sodium azide (positive control) were used. The percentage of inhibition was calculated using Equation (5). Differences among treatments were analyzed via ANOVA (α = 0.05) in GraphPad Prism. Each experiment was performed independently three times, with three technical replicates per experiment.

SMILES	CAT Inhibition λ570 nm (%)
C/C=C/c1ccc(OC)cc1 [Compound C29, trans-Anethol]	23.3
CC(C)=C1CC[C@H](C)CC1=O [Compound C2, S-(−)-Pulegone]	2.4
C=CCc1ccc(O)c(OC)c1 [Compound C26, Eugenol]	19.9
CC(C)=C1CC[C@@H](C)CC1=O [Compound C1, R-(+)-Pulegone]	4.3
